Read-outs that look alike come from different tables or passages of the source.
How the values were obtained:
Thrips [1] = settings: Thrips on cotton leaves, dose 1 ml/gm/lit.; for Total No. of dead insect at 48 Hrs.: 10 insects/treatment; for Total No. of dead insect at 48 Hrs. / % Mortality at 48 Hrs.: 48 hrs after application; for % Corrected Mortality at 48 Hrs.: corrected for water control
Alternaria alternata [2] = test: In vitro poisoned food technique against fungus (Ex. 20); type: cell-based; settings: poisoned food technique, PDA medium, dose 1 ml/gm/lit., after seven days; for % Inhibition of growth: vs untreated control
Thrips [3] = settings: thrips on cotton plants, greenhouse, dose 1 ml/gm/lit. spray; for % Mortality at 48 Hrs. / Total No. of dead insect at 48 Hrs.: 48 hrs after application; for % Corrected Mortality at 48 Hrs.: corrected for water control
Aphid [4] = settings: Aphids on cotton plants, green house, dose 1 ml/gm/lit.; for Total No. of dead insect at 48 Hrs.: 10 insects/plant, 10 plants/treatment; for % Mortality at 48 Hrs.: 48 hrs after application; for % Corrected Mortality at 48 Hrs.: corrected for water control
Mite [5] = settings: Dose 1 ml/gm/lit.; for Total No. of dead insect at 48 Hrs.: 10 insects/treatment, 4 replications, okra leaves
Spodoptera litura [6] = settings: Spodoptera litura on castor leaves, dose 1 ml/gm/lit.; for Total No. of dead insect at 72 Hrs.: 10 insects/treatment; for Total No. of dead insect at 72 Hrs. / % Mortality at 72 Hrs.: 72 hrs after application; for % Corrected Mortality at 72 Hrs.: corrected for water control
Helicoverpa armigera [7] = settings: Helicoverpa armigera on okra fruits, dose 1 ml/gm/lit., 72 Hrs.; for Total No. of dead insect at 72 Hrs.: 10 insects/treatment, 4 replications; for % Corrected Mortality at 72 Hrs.: corrected for water control
Alternaria alternata [8] = test: Alternaria leaf spot/blight on inoculated tomato plants (Ex. 28); type: in vivo; settings: tomato plants, Alternaria alternata; after 7 days; dose 1 ml/gm/lit
Mealy Bug [9] = settings: mealy bug on cotton plants, green house, dose 1 ml/gm/lit. spray; for % Mortality at 48 Hrs. / Total No. of dead insect at 48 Hrs.: 48 hrs after application; for % Corrected Mortality at 48 Hrs.: corrected for water control
Mealy Bug [10] = settings: Mealy Bug on cotton leaves, dose 1 ml/gm/lit., 48 Hrs.; for Total No. of dead insect at 48 Hrs.: 10 insects/treatment, 4 replications; for % Corrected Mortality at 48 Hrs.: corrected for water control
Spodoptera litura [11] = settings: Spodoptera litura 3rd instar on cabbage plants, dose 1 ml/gm/lit. spray; for % Mortality at 72 Hrs.: 72 hrs after application; for % Corrected Mortality at 72 Hrs.: corrected for water control
Helicoverpa armigera [12] = settings: Helicoverpa armigera 3rd instar on chickpea plants, dose 1 ml/gm/lit. spray; for % Mortality at 72 Hrs.: 72 hrs after application; for % Corrected Mortality at 72 Hrs.: corrected for water control
chili seedlings = test: Response of chili plants, greenhouse growth (Ex. 31); type: in vivo; settings: chili seedlings, dose 1 ml/gm/lit; for CCI 5th Day / Plant Height (cm) 5th Day: 5th day after application; for CCI 10th Day / Plant Height (cm) 10th Day: 10th day after application; for CCI % Increase over pre on 10th Day / Plant Height % Increase over pre on 10th Day / Root Lenght (cm) 10th Day / Stem Girth % Increase over pre on 10th Day / Root Lenght % Increase over control: 10th day; for Root Lenght % Increase over control: vs water control; for CCI Pre / Plant Height (cm) Pre: pre-application baseline
tomato seedlings = test: Response of tomato plants, greenhouse growth (Ex. 30); type: in vivo; settings: tomato seedlings, dose 1 ml/gm/lit; for Plant Height 5th Day / Stem Girth 5th Day / CCI 5th Day: 5th day after application; for Plant Height 10th Day / Stem Girth 10th Day / CCI 10th Day: 10th day after application; for Plant Height Pre / Stem Girth Pre: before application; for Plant Height % Increase over pre on 10th Day / Stem Girth % Increase over pre on 10th Day / CCI % Increase over pre on 10th Day / Root Length (cm) 10th Day / Root Length % Increase over control: 10th day; for Root Length % Increase over control: vs water control; for CCI Pre: pre-application baseline
[13] = cited from earlier work
Aphid [14] = settings: Dose 1 ml/gm/lit.; for Total No. of dead insect at 48 Hrs.: 10 insects/treatment, 4 replications, cotton leaves
Mite [15] = settings: mite on okra plants, green house, dose 1 ml/gm/lit. spray; for % Mortality at 48 Hrs. / Total No. of dead insect at 48 Hrs.: 48 hrs after application; for % Corrected Mortality at 48 Hrs.: corrected for water control
[16] = Table 13, descriptive, no test described

Berberine
Total No. of dead insect at 48 Hrs. (Thrips [1]): 6.50
% Mortality at 48 Hrs. (Thrips [1]): 65.00%
% Corrected Mortality at 48 Hrs. (Thrips [1]): 60.00%
Mean colony Diameter (mm) (Alternaria alternata [2]): 45.50 mm
% Inhibition of growth (Alternaria alternata [2]): 48.30%
% Mortality at 48 Hrs. (Thrips [3]): 67.50%
Total No. of dead insect at 48 Hrs. (Thrips [3]): 67.50
% Corrected Mortality at 48 Hrs. (Thrips [3]): 63.89%
Total No. of dead insect at 48 Hrs. (Aphid [4]): 55.00
% Mortality at 48 Hrs. (Aphid [4]): 55.00%
% Corrected Mortality at 48 Hrs. (Aphid [4]): 47.06%
Total No. of dead insect at 48 Hrs. (Mite [5]): 4.75
% Corrected Mortality at 48 Hrs. (Mite [5]): 43.24%
% Mortality at 48 Hrs. (Mite [5]): 47.50%
Total No. of dead insect at 72 Hrs. (Spodoptera litura [6]): 7.00
% Mortality at 72 Hrs. (Spodoptera litura [6]): 70.00%
% Corrected Mortality at 72 Hrs. (Spodoptera litura [6]): 68.42%
Total No. of dead insect at 72 Hrs. (Helicoverpa armigera [7]): 6.50
% Mortality at 72 Hrs. (Helicoverpa armigera [7]): 65.00%
% Corrected Mortality at 72 Hrs. (Helicoverpa armigera [7]): 65.00%
% Disease reduction over Control (Alternaria alternata [8]): 52.89%
% Mortality at 48 Hrs. (Mealy Bug [9]): 70.00%
Total No. of dead insect at 48 Hrs. (Mealy Bug [9]): 70.00
% Corrected Mortality at 48 Hrs. (Mealy Bug [9]): 66.67%
Total No. of dead insect at 48 Hrs. (Mealy Bug [10]): 7.50
% Mortality at 48 Hrs. (Mealy Bug [10]): 75.00%
% Corrected Mortality at 48 Hrs. (Mealy Bug [10]): 73.68%
% Mortality at 72 Hrs. (Spodoptera litura [11]): 67.50%
% Corrected Mortality at 72 Hrs. (Spodoptera litura [11]): 65.79%
% Mortality at 72 Hrs. (Helicoverpa armigera [12]): 62.50%
% Corrected Mortality at 72 Hrs. (Helicoverpa armigera [12]): 62.50%
CCI 5th Day (chili seedlings): 13.04
Plant Height (cm) 5th Day (chili seedlings): 6.15 cm
CCI % Increase over pre on 10th Day (chili seedlings): 36.98%
Plant Height % Increase over pre on 10th Day (chili seedlings): 50.11%
Root Lenght (cm) 10th Day (chili seedlings): 3.11 cm
Stem Girth % Increase over pre on 10th Day (chili seedlings): 40.15%
CCI 10th Day (chili seedlings): 14.04
Plant Height (cm) 10th Day (chili seedlings): 6.89 cm
Root Lenght % Increase over control (chili seedlings): 13.75%
CCI Pre (chili seedlings): 10.25
Plant Height (cm) Pre (chili seedlings): 4.59 cm
Plant Height 5th Day (tomato seedlings): 6.78 cm
Stem Girth 5th Day (tomato seedlings): 2.01 mm
Plant Height 10th Day (tomato seedlings): 7.34 cm
Stem Girth 10th Day (tomato seedlings): 2.25 mm
Plant Height % Increase over pre on 10th Day (tomato seedlings): 29.91%
Stem Girth % Increase over pre on 10th Day (tomato seedlings): 54.11%
Plant Height Pre (tomato seedlings): 5.65 cm
Stem Girth Pre (tomato seedlings): 1.46 mm
CCI 5th Day (tomato seedlings): 14.53
CCI % Increase over pre on 10th Day (tomato seedlings): 24.86%
Root Length (cm) 10th Day (tomato seedlings): 4.13 cm
CCI 10th Day (tomato seedlings): 15.67
Root Length % Increase over control (tomato seedlings): 24.12%
CCI Pre (tomato seedlings): 12.55
Antifungal Activity - Mode of action [13, 16]: Inhibit multipath mechanisms,
Antioxidant Activity - Mode of action [13, 16]: Reducing Oxidative Stress
Bactericidal Activity - Mode of action [13, 16]: Resulting in DNA damage,
Insecticidal Activities - Mode of action [13, 16]: Disturbed moulting, larval-
Nematicidal Activity - Mode of action [13, 16]: Effective against root knot
Phytotonic Effect ([13]; Table 13, effect on plants, descriptive): Boost
Total No. of dead insect at 48 Hrs. (Aphid [14]): 5.25
% Corrected Mortality at 48 Hrs. (Aphid [14]): 45.71%
% Mortality at 48 Hrs. (Aphid [14]): 52.50%
% Mortality at 48 Hrs. (Mite [15]): 45.00%
Total No. of dead insect at 48 Hrs. (Mite [15]): 45.00
% Corrected Mortality at 48 Hrs. (Mite [15]): 42.11%

Parthenin
Total No. of dead insect at 48 Hrs. (Thrips [1]): 4.75
% Mortality at 48 Hrs. (Thrips [1]): 47.50%
% Corrected Mortality at 48 Hrs. (Thrips [1]): 40.00%
Mean colony Diameter (mm) (Alternaria alternata [2]): 78.00 mm
% Inhibition of growth (Alternaria alternata [2]): 11.36%
% Mortality at 48 Hrs. (Thrips [3]): 45.00%
Total No. of dead insect at 48 Hrs. (Thrips [3]): 45.00
% Corrected Mortality at 48 Hrs. (Thrips [3]): 38.89%
Total No. of dead insect at 48 Hrs. (Aphid [4]): 57.50
% Mortality at 48 Hrs. (Aphid [4]): 57.50%
% Corrected Mortality at 48 Hrs. (Aphid [4]): 50.00%
Total No. of dead insect at 48 Hrs. (Mite [5]): 3.25
% Corrected Mortality at 48 Hrs. (Mite [5]): 27.03%
% Mortality at 48 Hrs. (Mite [5]): 32.50%
Total No. of dead insect at 72 Hrs. (Spodoptera litura [6]): 2.75
% Mortality at 72 Hrs. (Spodoptera litura [6]): 27.50%
% Corrected Mortality at 72 Hrs. (Spodoptera litura [6]): 23.68%
Total No. of dead insect at 72 Hrs. (Helicoverpa armigera [7]): 3.25
% Mortality at 72 Hrs. (Helicoverpa armigera [7]): 32.50%
% Corrected Mortality at 72 Hrs. (Helicoverpa armigera [7]): 32.50%
% Disease reduction over Control (Alternaria alternata [8]): 43.80%
% Mortality at 48 Hrs. (Mealy Bug [9]): 50.00%
Total No. of dead insect at 48 Hrs. (Mealy Bug [9]): 50.00
% Corrected Mortality at 48 Hrs. (Mealy Bug [9]): 44.44%
Total No. of dead insect at 48 Hrs. (Mealy Bug [10]): 4.75
% Mortality at 48 Hrs. (Mealy Bug [10]): 47.50%
% Corrected Mortality at 48 Hrs. (Mealy Bug [10]): 44.74%
% Mortality at 72 Hrs. (Spodoptera litura [11]): 27.50%
% Corrected Mortality at 72 Hrs. (Spodoptera litura [11]): 23.68%
% Mortality at 72 Hrs. (Helicoverpa armigera [12]): 35.00%
% Corrected Mortality at 72 Hrs. (Helicoverpa armigera [12]): 35.00%
CCI 5th Day (chili seedlings): 14.50
Plant Height (cm) 5th Day (chili seedlings): 6.13 cm
CCI % Increase over pre on 10th Day (chili seedlings): 74.40%
Plant Height % Increase over pre on 10th Day (chili seedlings): 52.29%
Root Lenght (cm) 10th Day (chili seedlings): 3.12 cm
Stem Girth % Increase over pre on 10th Day (chili seedlings): 38.18%
CCI 10th Day (chili seedlings): 15.87
Plant Height (cm) 10th Day (chili seedlings): 6.65 cm
Root Lenght % Increase over control (chili seedlings): 14.01%
CCI Pre (chili seedlings): 9.10
Plant Height (cm) Pre (chili seedlings): 4.37 cm
Plant Height 5th Day (tomato seedlings): 6.64 cm
Stem Girth 5th Day (tomato seedlings): 1.66 mm
Plant Height 10th Day (tomato seedlings): 7.29 cm
Stem Girth 10th Day (tomato seedlings): 2.22 mm
Plant Height % Increase over pre on 10th Day (tomato seedlings): 29.95%
Stem Girth % Increase over pre on 10th Day (tomato seedlings): 55.53%
Plant Height Pre (tomato seedlings): 5.61 cm
Stem Girth Pre (tomato seedlings): 1.43 mm
CCI 5th Day (tomato seedlings): 13.95
CCI % Increase over pre on 10th Day (tomato seedlings): 20.70%
Root Length (cm) 10th Day (tomato seedlings): 4.05 cm
CCI 10th Day (tomato seedlings): 14.87
Root Length % Increase over control (tomato seedlings): 21.63%
CCI Pre (tomato seedlings): 12.32
Antioxidant Activity - Mode of action [13, 16]: Possesses antioxidant
Insecticidal Activities - Mode of action [13, 16]: Antifeedant activity against
Total No. of dead insect at 48 Hrs. (Aphid [14]): 6.00
% Corrected Mortality at 48 Hrs. (Aphid [14]): 54.29%
% Mortality at 48 Hrs. (Aphid [14]): 60.00%
% Mortality at 48 Hrs. (Mite [15]): 22.50%
Total No. of dead insect at 48 Hrs. (Mite [15]): 22.50
% Corrected Mortality at 48 Hrs. (Mite [15]): 18.42%

— patent publication US20250351832A1, “PHYTOCHEMICALS AS BIOPESTICIDES AND BIOSTIMULANTS” (KAY BEE BIO ORGANICS PVT. LTD., priority 2024, published 2025)
